Measured values as given in US12673945B2, “3-((8-((1H-pyrazol-4-yl)amino)imidazo[1,2-a]pyridin-3-yl)ethinyl)-n-phenylbenzamide derivative, method for preparing same, and pharmaceutical composition containing same as active ingredient for prevention or treatment of cancer” (DAEGU-GYEONGBUK MEDICAL INNOVATION FOUNDATION, priority 2020, dated 2026).

Columns and labels:
Assay in all cases: scanMAX Kinase panel (DiscoverX)
Format in all cases: binding
RIPK2 = biological target: T1, RIPK2 (Homo sapiens, UniProt O43353); conditions: read-out: % Cont @ 1 uM
T1 construct: purchased DiscoverX scanMAX Kinase panel
Method in brief: (§1)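 Compound (1 μM, DMSO) incubated with each panel kinase. Signal was normalised to the control range, giving % control by the formula (sample − positive)/(negative − positive)×100.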

SIK = biological target: T2, SIK (Homo sapiens, UniProt P57059)
T2 construct: purchased DiscoverX scanMAX Kinase panel
Method in brief: as §1

TRKB = biological target: T3, TRKB (Homo sapiens, UniProt Q16620); conditions: read-out: % Cont @ 1 uM
T3 construct: purchased DiscoverX scanMAX Kinase panel
Method in brief: as §1

GCN2(Kin.Dom.2, S808G) = biological target: T4, GCN2(Kin.Dom.2, S808G) (Homo sapiens, UniProt Q9P2K8, S808G); conditions: read-out: % Cont @ 1 uM
T4 construct: GCN2(Kin.Dom.2,S808G); purchased DiscoverX scanMAX Kinase panel
Method in brief: as §1

FLT3(ITD) = test system: FLT3(ITD)
Method in brief: as §1

TNK1 = biological target: T5, TNK1 (Homo sapiens, UniProt Q13470); conditions: read-out: % Cont @ 1 uM
T5 construct: purchased DiscoverX scanMAX Kinase panel
Method in brief: as §1

RET(M918T) = biological target: T6, RET(M918T) (Homo sapiens, UniProt P07949, M918T); conditions: read-out: % Cont @ 1 uM
T6 construct: purchased DiscoverX scanMAX Kinase panel
Method in brief: as §1

EPHA5 = biological target: T7, EPHA5 (Homo sapiens, UniProt P54756)
T7 construct: purchased DiscoverX scanMAX Kinase panel
Method in brief: as §1

NLK = biological target: T8, NLK (Homo sapiens, UniProt Q9UBE8); conditions: read-out: % Cont @ 1 uM
T8 construct: purchased DiscoverX scanMAX Kinase panel
Method in brief: as §1

JNK2 = biological target: T9, JNK2 (Homo sapiens, UniProt P45984)
T9 construct: purchased DiscoverX scanMAX Kinase panel
Method in brief: as §1

EPHB6 = biological target: T10, EPHB6 (Homo sapiens, UniProt O15197); conditions: read-out: % Cont @ 1 uM
T10 construct: purchased DiscoverX scanMAX Kinase panel
Method in brief: as §1

EGFR = biological target: T11, EGFR (Homo sapiens, UniProt P00533)
T11 construct: purchased DiscoverX scanMAX Kinase panel
Method in brief: as §1

MEK5 = biological target: T12, MEK5 (Homo sapiens, UniProt Q13163); conditions: read-out: % Cont @ 1 uM
T12 construct: purchased DiscoverX scanMAX Kinase panel
Method in brief: as §1

RET(V804L) = biological target: T13, RET(V804L) (Homo sapiens, UniProt P07949, V804L); conditions: read-out: % Cont @ 1 uM
T13 construct: purchased DiscoverX scanMAX Kinase panel
Method in brief: as §1

MKNK1 = biological target: T14, MKNK1 (Homo sapiens, UniProt Q9BUB5); conditions: read-out: % Cont @ 1 uM
T14 construct: purchased DiscoverX scanMAX Kinase panel
Method in brief: as §1

EGFR(L861Q) = biological target: T15, EGFR(L861Q) (Homo sapiens, UniProt P00533, L861Q)
T15 construct: purchased DiscoverX scanMAX Kinase panel
Method in brief: as §1

TAOK2 = biological target: T16, TAOK2 (Homo sapiens, UniProt Q9UL54); conditions: read-out: % Cont @ 1 uM
T16 construct: purchased DiscoverX scanMAX Kinase panel
Method in brief: as §1

MAP3K3 = biological target: T17, MAP3K3 (Homo sapiens, UniProt Q99759); conditions: read-out: % Cont @ 1 uM
T17 construct: purchased DiscoverX scanMAX Kinase panel
Method in brief: as §1

ABL1-nonphosphorylated = biological target: T18, ABL1-nonphosphorylated (Homo sapiens, UniProt P00519); conditions: read-out: % Cont @ 1 uM
T18 construct: purchased DiscoverX scanMAX Kinase panel
Method in brief: as §1

[1] = biological target: T19, ABL1(T315I)-phosphorylated (Homo sapiens, UniProt P00519, T315I); conditions: read-out: % Cont @ 1 uM
T19 construct: purchased DiscoverX
Method in brief: as §1

FLT3(ITD, F691L) = test system: FLT3(ITD, F691L)
Method in brief: as §1

CSK = biological target: T20, CSK (Homo sapiens, UniProt P41240)
T20 construct: purchased DiscoverX scanMAX Kinase panel
Method in brief: as §1

[2] = biological target: T21, EGFR(L747-S752del, P753S) (Homo sapiens, UniProt P00533, DEL747-752/P753S)
T21 construct: purchased DiscoverX scanMAX Kinase panel
Method in brief: as §1

AURKC = biological target: T22, AURKC (Homo sapiens, UniProt Q9UQB9); conditions: read-out: % Cont @ 1 uM
T22 construct: purchased DiscoverX scanMAX Kinase panel
Method in brief: as §1

p38-delta = biological target: T23, p38-delta (Homo sapiens, UniProt O15264); conditions: read-out: % Cont @ 1 uM
T23 construct: purchased DiscoverX scanMAX Kinase panel
Method in brief: as §1

FLT3(D835Y) = biological target: T24, FLT3(D835Y) (Homo sapiens, UniProt P36888, D835Y); conditions: read-out: % Cont @ 1 uM
T24 construct: purchased DiscoverX scanMAX Kinase panel
Method in brief: as §1

TIE2 = biological target: T25, TIE2 (Homo sapiens, UniProt Q02763); conditions: read-out: % Cont @ 1 uM
T25 construct: purchased DiscoverX scanMAX Kinase panel
Method in brief: as §1

FGFR4 = biological target: T26, FGFR4 (Homo sapiens, UniProt P22455); conditions: read-out: % Cont @ 1 uM
T26 construct: purchased DiscoverX scanMAX Kinase panel
Method in brief: as §1

[3] = biological target: T27, ABL1(F317L)-nonphosphorylated (Homo sapiens, UniProt P00519, F317L); conditions: read-out: % Cont @ 1 uM
T27 construct: purchased DiscoverX
Method in brief: as §1

BTK = biological target: T28, BTK (Homo sapiens, UniProt Q06187)
T28 construct: purchased DiscoverX scanMAX Kinase panel
Method in brief: as §1

KIT(V559D, V654A) = biological target: T29, KIT(V559D, V654A) (Homo sapiens, UniProt P10721, V559D/V654A); conditions: read-out: % Cont @ 1 uM
T29 construct: purchased DiscoverX scanMAX Kinase panel
Method in brief: as §1

VEGFR2 = biological target: T30, VEGFR2 (Homo sapiens, UniProt P35968); conditions: read-out: % Cont @ 1 uM
T30 construct: purchased DiscoverX scanMAX Kinase panel
Method in brief: as §1

BMX = biological target: T31, BMX (Homo sapiens, UniProt P51813); conditions: read-out: % Cont @ 1 uM
T31 construct: purchased DiscoverX scanMAX Kinase panel
Method in brief: as §1

T1 sequence (O43353 whole entry): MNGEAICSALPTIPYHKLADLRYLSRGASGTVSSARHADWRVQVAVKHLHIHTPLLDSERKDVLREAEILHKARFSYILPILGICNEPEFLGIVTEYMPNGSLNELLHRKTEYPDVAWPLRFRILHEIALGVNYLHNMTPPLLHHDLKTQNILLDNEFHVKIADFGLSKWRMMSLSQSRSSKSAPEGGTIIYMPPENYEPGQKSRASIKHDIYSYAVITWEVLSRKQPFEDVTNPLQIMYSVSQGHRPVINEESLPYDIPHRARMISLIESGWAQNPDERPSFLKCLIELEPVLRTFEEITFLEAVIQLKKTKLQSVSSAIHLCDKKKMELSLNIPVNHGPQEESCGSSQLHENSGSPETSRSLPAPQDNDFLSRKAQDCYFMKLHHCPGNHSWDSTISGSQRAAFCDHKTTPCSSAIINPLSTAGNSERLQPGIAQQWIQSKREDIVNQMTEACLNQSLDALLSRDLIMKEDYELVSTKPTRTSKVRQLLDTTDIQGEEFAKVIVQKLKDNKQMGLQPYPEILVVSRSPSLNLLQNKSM
T3 sequence (Q16620 32-822): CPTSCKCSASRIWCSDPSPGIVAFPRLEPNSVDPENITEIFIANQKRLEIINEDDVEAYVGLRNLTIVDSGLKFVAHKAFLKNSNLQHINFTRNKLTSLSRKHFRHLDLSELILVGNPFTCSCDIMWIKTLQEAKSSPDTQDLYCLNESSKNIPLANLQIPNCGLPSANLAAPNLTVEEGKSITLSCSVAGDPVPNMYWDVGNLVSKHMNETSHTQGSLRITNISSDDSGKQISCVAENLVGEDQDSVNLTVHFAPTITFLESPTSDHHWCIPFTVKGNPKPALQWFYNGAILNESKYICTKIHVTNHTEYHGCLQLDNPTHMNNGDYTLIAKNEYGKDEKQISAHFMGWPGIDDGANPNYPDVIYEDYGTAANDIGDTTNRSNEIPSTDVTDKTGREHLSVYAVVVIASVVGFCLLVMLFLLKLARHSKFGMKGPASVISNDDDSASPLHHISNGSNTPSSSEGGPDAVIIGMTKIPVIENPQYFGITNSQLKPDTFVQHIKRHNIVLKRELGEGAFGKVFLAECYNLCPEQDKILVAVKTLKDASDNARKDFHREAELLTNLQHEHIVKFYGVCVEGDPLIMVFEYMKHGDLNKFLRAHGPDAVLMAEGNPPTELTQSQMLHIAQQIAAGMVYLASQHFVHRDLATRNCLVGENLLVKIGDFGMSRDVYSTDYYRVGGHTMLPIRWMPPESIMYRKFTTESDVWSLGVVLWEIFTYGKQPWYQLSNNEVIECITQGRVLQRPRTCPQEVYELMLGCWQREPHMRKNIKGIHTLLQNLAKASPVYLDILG
T23 sequence (O15264 whole entry): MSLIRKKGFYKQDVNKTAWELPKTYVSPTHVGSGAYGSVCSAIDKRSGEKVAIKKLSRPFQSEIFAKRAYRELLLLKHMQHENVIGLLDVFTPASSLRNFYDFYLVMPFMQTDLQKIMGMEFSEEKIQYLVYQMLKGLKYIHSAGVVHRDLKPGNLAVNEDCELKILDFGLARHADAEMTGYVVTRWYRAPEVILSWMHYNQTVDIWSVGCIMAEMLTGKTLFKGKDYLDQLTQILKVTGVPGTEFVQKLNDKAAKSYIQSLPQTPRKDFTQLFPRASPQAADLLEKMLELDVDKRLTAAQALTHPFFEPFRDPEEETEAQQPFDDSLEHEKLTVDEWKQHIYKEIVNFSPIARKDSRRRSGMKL
T4 sequence (Q9P2K8 590-1001 S808G limits assumed): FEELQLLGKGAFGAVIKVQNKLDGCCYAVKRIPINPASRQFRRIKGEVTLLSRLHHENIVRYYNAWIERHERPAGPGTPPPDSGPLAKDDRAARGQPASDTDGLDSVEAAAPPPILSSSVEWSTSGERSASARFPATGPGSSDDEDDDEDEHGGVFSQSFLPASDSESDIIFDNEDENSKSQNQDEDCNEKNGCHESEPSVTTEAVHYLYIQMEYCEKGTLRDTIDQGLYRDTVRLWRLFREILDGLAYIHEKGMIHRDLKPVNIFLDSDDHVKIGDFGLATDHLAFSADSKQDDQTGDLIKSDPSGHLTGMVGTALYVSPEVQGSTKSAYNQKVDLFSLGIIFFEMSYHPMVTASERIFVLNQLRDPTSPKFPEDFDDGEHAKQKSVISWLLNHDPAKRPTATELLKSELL
T22 sequence (Q9UQB9 whole entry): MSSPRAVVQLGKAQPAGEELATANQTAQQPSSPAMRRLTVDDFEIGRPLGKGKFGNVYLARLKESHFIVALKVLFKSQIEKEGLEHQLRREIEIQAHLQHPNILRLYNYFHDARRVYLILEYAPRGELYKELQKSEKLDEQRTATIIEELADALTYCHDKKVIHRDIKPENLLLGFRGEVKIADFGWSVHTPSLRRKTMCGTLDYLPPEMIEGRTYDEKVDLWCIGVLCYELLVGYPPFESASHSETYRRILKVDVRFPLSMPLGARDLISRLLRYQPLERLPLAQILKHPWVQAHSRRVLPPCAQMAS
T5 sequence (Q13470 whole entry): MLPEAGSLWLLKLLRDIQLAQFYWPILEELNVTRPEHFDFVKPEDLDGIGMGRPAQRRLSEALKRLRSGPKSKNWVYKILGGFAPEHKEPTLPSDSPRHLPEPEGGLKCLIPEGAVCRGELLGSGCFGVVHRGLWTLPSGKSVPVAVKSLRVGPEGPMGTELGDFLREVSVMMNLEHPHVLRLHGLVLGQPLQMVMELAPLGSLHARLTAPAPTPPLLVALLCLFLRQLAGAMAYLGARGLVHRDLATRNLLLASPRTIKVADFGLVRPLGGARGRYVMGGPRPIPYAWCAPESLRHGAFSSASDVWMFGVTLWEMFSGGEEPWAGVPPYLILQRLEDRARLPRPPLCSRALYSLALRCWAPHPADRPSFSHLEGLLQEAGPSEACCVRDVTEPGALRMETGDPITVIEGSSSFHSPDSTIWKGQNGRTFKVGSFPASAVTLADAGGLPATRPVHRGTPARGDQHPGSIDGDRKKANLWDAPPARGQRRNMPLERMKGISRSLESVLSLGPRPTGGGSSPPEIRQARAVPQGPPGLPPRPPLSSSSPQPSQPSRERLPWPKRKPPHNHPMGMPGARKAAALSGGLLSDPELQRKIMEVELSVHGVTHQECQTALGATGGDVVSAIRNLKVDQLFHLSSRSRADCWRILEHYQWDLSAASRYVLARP
T9 sequence (P45984 whole entry): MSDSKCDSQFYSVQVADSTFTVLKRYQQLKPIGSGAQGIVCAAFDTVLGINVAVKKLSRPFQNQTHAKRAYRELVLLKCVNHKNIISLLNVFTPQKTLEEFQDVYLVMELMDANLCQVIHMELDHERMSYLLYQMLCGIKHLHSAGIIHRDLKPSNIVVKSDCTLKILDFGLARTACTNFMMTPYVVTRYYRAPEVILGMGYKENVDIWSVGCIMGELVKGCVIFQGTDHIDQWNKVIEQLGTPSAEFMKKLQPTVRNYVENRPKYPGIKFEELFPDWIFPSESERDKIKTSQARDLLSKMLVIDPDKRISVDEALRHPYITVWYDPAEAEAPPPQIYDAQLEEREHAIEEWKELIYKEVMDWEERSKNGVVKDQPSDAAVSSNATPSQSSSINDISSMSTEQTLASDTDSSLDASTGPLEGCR
T20 sequence (P41240 whole entry): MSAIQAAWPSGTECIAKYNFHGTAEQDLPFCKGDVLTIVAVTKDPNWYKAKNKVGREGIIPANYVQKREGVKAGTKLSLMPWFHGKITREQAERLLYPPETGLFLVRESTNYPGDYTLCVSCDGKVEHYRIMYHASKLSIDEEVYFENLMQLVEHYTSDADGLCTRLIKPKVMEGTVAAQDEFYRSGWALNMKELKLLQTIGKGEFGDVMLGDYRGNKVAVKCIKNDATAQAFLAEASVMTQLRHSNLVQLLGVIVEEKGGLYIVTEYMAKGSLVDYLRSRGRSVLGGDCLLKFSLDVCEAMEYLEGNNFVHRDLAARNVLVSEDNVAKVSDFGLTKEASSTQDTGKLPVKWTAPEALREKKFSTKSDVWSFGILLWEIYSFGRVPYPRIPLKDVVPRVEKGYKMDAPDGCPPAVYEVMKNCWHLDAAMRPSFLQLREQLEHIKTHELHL
T7 sequence (P54756 25-1037): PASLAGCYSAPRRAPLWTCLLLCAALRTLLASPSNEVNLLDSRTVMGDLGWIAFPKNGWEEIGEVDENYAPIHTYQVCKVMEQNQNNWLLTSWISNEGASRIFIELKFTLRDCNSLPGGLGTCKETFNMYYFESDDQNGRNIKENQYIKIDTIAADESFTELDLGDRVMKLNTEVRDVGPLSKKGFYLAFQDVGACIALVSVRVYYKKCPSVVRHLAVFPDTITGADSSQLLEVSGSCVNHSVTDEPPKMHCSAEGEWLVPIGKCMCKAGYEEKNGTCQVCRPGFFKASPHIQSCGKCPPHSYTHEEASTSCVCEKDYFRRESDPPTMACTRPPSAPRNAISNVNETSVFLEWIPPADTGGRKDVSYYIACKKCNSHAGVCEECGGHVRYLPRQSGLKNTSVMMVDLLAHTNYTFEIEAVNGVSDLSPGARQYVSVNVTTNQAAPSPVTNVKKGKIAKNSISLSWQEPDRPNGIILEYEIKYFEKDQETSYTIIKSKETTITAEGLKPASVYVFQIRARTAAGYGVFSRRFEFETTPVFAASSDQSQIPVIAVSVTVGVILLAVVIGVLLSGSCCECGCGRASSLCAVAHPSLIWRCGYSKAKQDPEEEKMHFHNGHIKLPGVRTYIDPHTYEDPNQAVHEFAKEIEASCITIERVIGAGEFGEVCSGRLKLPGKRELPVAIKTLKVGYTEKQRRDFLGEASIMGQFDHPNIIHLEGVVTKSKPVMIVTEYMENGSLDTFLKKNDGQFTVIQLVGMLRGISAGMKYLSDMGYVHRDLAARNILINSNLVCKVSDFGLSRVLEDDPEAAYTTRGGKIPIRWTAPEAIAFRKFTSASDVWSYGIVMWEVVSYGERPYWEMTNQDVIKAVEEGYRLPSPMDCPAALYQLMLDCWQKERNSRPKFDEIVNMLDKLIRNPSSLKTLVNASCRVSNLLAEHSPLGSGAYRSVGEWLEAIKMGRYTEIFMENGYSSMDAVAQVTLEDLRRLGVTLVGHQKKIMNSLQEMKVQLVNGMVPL

SMILES: Cc1cn(-c2cc(NC(=O)c3cc(C#Cc4cnc5c(Nc6cnn(C)c6)cccn45)c(C)cc3F)cc(C(C)(C)C#N)c2)cn1 [Example 1, N-(3-(2-cyanopropane-2-yl)-5-(4-methyl-1H-imidazol-1-yl)phenyl)-2-fluoro-4-methyl-5-((8-((1-methyl-1H-pyrazol-4-yl)amino)imidazo[1,2-a]pyridin-3-yl)ethynyl)benzamide]
- remaining binding at 1 µM (RIPK2): 3%
- % Cont @ 1 uM (SIK): 2%
- remaining binding at 1 µM (TRKB): 0.6%
- remaining binding at 1 µM (GCN2(Kin.Dom.2, S808G)): 17%
- % Cont @ 1 uM (FLT3(ITD)): 1.1%
- remaining binding at 1 µM (TNK1): 30%
- remaining binding at 1 µM (RET(M918T)): 0%
- % Cont @ 1 uM (EPHA5): 8.9%
- remaining binding at 1 µM (NLK): 0%
- % Cont @ 1 uM (JNK2): 12%
- remaining binding at 1 µM (EPHB6): 0%
- % Cont @ 1 uM (EGFR): 29%
- remaining binding at 1 µM (MEK5): 0%
- remaining binding at 1 µM (RET(V804L)): 0.6%
- remaining binding at 1 µM (MKNK1): 23%
- % Cont @ 1 uM (EGFR(L861Q)): 6.7%
- remaining binding at 1 µM (TAOK2): 20%
- remaining binding at 1 µM (MAP3K3): 19%
- remaining binding at 1 µM (ABL1-nonphosphorylated): 1.9%
- remaining binding at 1 µM [1]: 2.3%
- % Cont @ 1 uM (FLT3(ITD, F691L)): 5.1%
- % Cont @ 1 uM (CSK): 0.3%
- % Cont @ 1 uM [2]: 1.3%
- remaining binding at 1 µM (AURKC): 27%
- percent of control binding at 1 µM (p38-delta): 29%
- remaining binding at 1 µM (FLT3(D835Y)): 14%
- remaining binding at 1 µM (TIE2): 0.4%
- remaining binding at 1 µM (FGFR4): 2.8%
- remaining binding at 1 µM [3]: 2.7%
- % Cont @ 1 uM (BTK): 2.2%
- remaining binding at 1 µM (KIT(V559D, V654A)): 2.9%
- remaining binding at 1 µM (VEGFR2): 6.1%
- remaining binding at 1 µM (BMX): 6.7%

SMILES: Cc1cn(-c2cc(NC(=O)c3cc(C#Cc4cnc5c(Nc6cnn(C)c6)cccn45)c(C)cc3F)cc(C(F)(F)F)c2)cn1 [Example 4, 2-fluoro-4-methyl-N-(3-(4-methyl-1H-imidazol-1-yl)-5-(trifluoromethyl)phenyl)-5-((8-((1-methyl-1H-pyrazol-4-yl)amino)imidazo[1,2-a]pyridin-3-yl)ethynyl)benzamide]
- remaining binding at 1 µM (RIPK2): 37%
- % Cont @ 1 uM (SIK): 14%
- remaining binding at 1 µM (TRKB): 7.7%
- remaining binding at 1 µM (GCN2(Kin.Dom.2, S808G)): 64%
- % Cont @ 1 uM (FLT3(ITD)): 6.6%
- remaining binding at 1 µM (TNK1): 31%
- remaining binding at 1 µM (RET(M918T)): 0.95%
- % Cont @ 1 uM (EPHA5): 26%
- remaining binding at 1 µM (NLK): 14%
- % Cont @ 1 uM (JNK2): 81%
- remaining binding at 1 µM (EPHB6): 0%
- % Cont @ 1 uM (EGFR): 79%
- remaining binding at 1 µM (MEK5): 1.2%
- remaining binding at 1 µM (RET(V804L)): 6%
- remaining binding at 1 µM (MKNK1): 78%
- % Cont @ 1 uM (EGFR(L861Q)): 53%
- remaining binding at 1 µM (TAOK2): 35%
- remaining binding at 1 µM (MAP3K3): 82%
- remaining binding at 1 µM (ABL1-nonphosphorylated): 5.6%
- remaining binding at 1 µM [1]: 16%
- % Cont @ 1 uM (FLT3(ITD, F691L)): 37%
- % Cont @ 1 uM (CSK): 0.8%
- % Cont @ 1 uM [2]: 40%
- remaining binding at 1 µM (AURKC): 39%
- percent of control binding at 1 µM (p38-delta): 92%
- remaining binding at 1 µM (FLT3(D835Y)): 22%
- remaining binding at 1 µM (TIE2): 0.7%
- remaining binding at 1 µM (FGFR4): 53%
- remaining binding at 1 µM [3]: 10%
- % Cont @ 1 uM (BTK): 38%
- remaining binding at 1 µM (KIT(V559D, V654A)): 12%
- remaining binding at 1 µM (VEGFR2): 36%
- remaining binding at 1 µM (BMX): 3.6%
